This note sets out measurements from PMC3058180 (Journal of pharmaceutical sciences, 2010).

The test deals with A/Wuhan/359/95 E119V (oseltamivir-resistant). The format is cell-based, influenza A virus. Particulars: read-out: IC50 (nM of Zanamivir).

The IC50 is the concentration that gives 50% inhibition. Consider `CC(=O)N[C@H]1[C@H]([C@H](O)[C@H](O)CO)OC(C(=O)O)=C[C@@H]1N=C(N)N` [compound 1, Zanamivir], for which the concentration for half-maximal inhibition (IC50) came to 48000 nM.
